In experiment [1] the target is T1, Type-2 angiotensin II receptor (Rattus norvegicus, UniProt P35351).
T1 sequence (P35351 whole entry): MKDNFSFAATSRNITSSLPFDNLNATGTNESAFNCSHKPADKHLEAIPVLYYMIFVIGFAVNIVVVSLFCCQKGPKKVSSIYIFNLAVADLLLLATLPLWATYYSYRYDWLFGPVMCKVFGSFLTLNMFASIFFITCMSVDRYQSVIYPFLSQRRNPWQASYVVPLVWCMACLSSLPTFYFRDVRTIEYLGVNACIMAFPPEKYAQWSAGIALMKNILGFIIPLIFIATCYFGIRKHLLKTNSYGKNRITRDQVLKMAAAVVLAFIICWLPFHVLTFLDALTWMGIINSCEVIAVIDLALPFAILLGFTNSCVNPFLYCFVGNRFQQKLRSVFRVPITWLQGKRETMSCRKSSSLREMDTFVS

Experiment [2] concerns the target T2, Type-1 angiotensin II receptor (Homo sapiens, UniProt P30556).
T2 sequence (P30556 whole entry): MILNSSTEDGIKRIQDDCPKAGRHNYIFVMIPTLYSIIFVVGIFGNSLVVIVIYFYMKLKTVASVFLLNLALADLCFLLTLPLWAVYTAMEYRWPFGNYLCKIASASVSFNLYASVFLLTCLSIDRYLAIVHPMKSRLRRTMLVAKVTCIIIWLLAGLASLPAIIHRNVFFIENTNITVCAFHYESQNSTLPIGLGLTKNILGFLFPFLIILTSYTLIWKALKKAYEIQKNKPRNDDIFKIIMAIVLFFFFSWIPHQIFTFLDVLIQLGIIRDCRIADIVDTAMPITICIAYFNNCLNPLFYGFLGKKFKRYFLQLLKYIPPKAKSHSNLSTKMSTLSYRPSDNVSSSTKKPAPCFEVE

Experiment [3] concerns the target T3, Type-1 angiotensin II receptor A (Rattus norvegicus, UniProt P25095).
T3 sequence (P25095 whole entry): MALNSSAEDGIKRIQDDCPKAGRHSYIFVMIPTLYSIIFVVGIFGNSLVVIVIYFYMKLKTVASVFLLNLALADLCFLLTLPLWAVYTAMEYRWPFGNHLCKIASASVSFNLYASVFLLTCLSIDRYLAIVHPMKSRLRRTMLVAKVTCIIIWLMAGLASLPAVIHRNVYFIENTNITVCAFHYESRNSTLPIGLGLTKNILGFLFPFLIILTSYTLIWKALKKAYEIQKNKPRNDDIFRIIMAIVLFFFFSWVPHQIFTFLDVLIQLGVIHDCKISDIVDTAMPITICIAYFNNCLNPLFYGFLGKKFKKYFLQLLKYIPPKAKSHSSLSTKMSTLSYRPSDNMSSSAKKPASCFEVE

Experiment [4] addresses T4, Type-1 angiotensin II receptor B (Rattus norvegicus, UniProt P29089).
T4 sequence (P29089 whole entry): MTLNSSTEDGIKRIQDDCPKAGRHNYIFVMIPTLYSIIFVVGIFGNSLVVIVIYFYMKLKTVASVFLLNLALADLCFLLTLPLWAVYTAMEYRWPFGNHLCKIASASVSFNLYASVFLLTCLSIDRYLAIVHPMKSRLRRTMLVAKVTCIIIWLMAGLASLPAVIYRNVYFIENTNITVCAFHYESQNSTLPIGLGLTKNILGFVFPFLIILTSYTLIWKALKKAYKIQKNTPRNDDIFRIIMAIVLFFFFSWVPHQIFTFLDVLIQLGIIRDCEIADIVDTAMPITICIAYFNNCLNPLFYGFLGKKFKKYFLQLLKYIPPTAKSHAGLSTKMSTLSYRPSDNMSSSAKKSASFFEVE

Side chains are listed from the residue outwards. Peptide text beside a SMILES is read from it. * marks the point of attachment. Nicotinoyl = O=C(c1cccnc1)*; Cbz = O=C(OCc1ccccc1)*

These results are taken from BindingDB's records for doi:10.1046/j.1472-8206.2002.00076.x (Shinshu University, 2002).

Usually Ki stands for a dissociation constant, usually derived from enzyme kinetics or from competition with a known ligand. A high value points to a looser hold on the target.

Take `CCOc1nc2cccc(C(=O)O)c2n1Cc1ccc(-c2ccccc2-c2nnn[nH]2)cc1`: the Ki is above 10000 nM in experiment [1], 0.17 nM in experiment [2], 0.12 nM in experiment [3] and 0.12 nM in experiment [4].
As for `CCCCc1nc(Cl)c(C(=O)O)n1Cc1ccc(-c2ccccc2-c2nn[nH]n2)cc1` [2-Butyl-5-chloro-3-[2'-(1H-tetrazol-5-yl)-biphenyl-4-ylmethyl]-3H-imidazole-4-carboxylic acid], the inhibition constant Ki in experiment [1] was above 10000 nM; in experiment [3] it was 0.57 nM.
As to `CCc1nn(Cc2ccc(-c3ccccc3-c3nnn[nH]3)cc2)c(=NC(=O)C2=C(C(=O)O)CCC2)s1` [KRH-594], the inhibition constant Ki in experiment [1] was 9360 nM; in experiment [2], 1.24 nM; in experiment [3] it was 1.02 nM; in experiment [4] it was 0.67 nM.
`CC[C@H](C)[C@H](NC(=O)[C@@H]1CCCN1C(=O)[C@H](Cc1c[nH]cn1)NC(=O)[C@H](CCCCNC(=O)[C@H](CCCN=C(N)N)NC(=O)OCc1ccccc1)NC(=O)[C@H](Cc1ccc(O)cc1)NC(=O)c1cccnc1)C(=O)O` [NSC_123794] (Nicotinoyl-YK([Arg-Cbz])HPI-OH) registered a Ki in experiment [1] of 0.37 nM.
